According to ChEMBL document CHEMBL1201862, “PubChem BioAssay data set” (2004):
Calls of active or inactive are those of the source. Cut-off read from the data, not from the text of the source, for most assays here: actives have a measured EC50 and inactives only a lower limit.

Legend:
[1] = target: T1, Corticotropin-releasing factor receptor 2/Corticotropin-releasing factor-binding protein (Homo sapiens, UniProt P24387+Q13324); test: Dose Response confirmation of uHTS hits for small molecule antagonists of the CRF-binding protein and CRF-R2 receptor complex.; format: functional; settings: read-out: IC50_Mean
T1 sequence (Q13324 whole entry): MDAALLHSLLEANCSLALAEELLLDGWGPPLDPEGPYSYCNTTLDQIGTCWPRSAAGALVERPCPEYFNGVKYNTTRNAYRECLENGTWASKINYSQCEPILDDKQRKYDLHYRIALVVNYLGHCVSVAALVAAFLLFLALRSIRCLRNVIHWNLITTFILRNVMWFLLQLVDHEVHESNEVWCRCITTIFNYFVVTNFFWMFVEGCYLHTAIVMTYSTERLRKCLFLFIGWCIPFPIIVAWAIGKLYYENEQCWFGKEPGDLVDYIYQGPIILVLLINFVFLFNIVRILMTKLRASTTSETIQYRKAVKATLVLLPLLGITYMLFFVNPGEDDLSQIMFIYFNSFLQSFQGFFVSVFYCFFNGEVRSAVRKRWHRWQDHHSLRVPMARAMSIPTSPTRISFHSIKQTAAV
T1 sequence (P24387 whole entry): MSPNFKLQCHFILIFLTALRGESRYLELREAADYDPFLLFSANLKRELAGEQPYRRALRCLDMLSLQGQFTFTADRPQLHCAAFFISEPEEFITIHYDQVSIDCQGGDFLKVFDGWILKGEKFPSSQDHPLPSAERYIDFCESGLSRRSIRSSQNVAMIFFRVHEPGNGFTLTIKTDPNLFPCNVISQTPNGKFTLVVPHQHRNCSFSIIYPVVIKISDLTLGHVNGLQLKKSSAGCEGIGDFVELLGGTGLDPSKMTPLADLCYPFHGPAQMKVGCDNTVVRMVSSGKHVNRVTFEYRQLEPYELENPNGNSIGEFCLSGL

[2] = target: T1, Corticotropin-releasing factor receptor 2/Corticotropin-releasing factor-binding protein; test: activators of CRF receptor 2 with binding protein – uHTS hits, confirmation (AID 602473); format: functional; settings: read-out: EC50_Mean
[3] = Luminescence Cell-Based Dose Response HTS to Identify Activators of Luciferase Translation or Activity in H4 […] Cells. [Related pubchem assays: 1829 (Project Summary), 1814 (Primary HTS)]; format: functional
[4] = Luminescence Cell-Based Dose Confirmation HTS to Identify Activators of 5'UTR Stem-Loop Driven Alpha-Synuclein mRNA Translation in H4 Neuroglioblastoma Cells. [Related pubchem assays: 1829 (Project Summary), 1814 (Primary HTS)]; format: functional
H4 = test: Luminescence Cell-Based Dose Response HTS to Identify Activators of 5'UTR Stem-Loop Driven Prion Protein mRNA Translation in H4 Neuroglioblastoma Cells. [Related pubchem assays: 1829 (Project Summary), 1814 (Primary HTS)]; format: functional; settings: Homo sapiens
Vero = Vero cell cytotoxicity, cytotoxicity control for flavivirus capping enzyme inhibitors (AID 588742); format: functional; settings: Chlorocebus sabaeus
[5] = target: Luciferin 4-monooxygenase (Photinus pyralis, UniProt P08659); test: firefly luciferase enzyme inhibitors, dose response, biochemical, luminescence (AID 1891)
[6] = Luminescence Cell-Based Dose Confirmation HTS to Identify Inhibitors of Platelet Dense Granule Release. [Related pubchem assays: 1663 (Primary HTS), 1678 (Summary of Project)]; format: functional
[7] = target: Glyceraldehyde-3-phosphate dehydrogenase (Homo sapiens, UniProt P04406)
[8] = target: T2, Carboxy-terminal domain RNA polymerase II polypeptide A small phosphatase 1 (Homo sapiens, UniProt Q9GZU7); test: inhibitors of CTDSP1, concentration-response testing, biochemical assay, absorbance-based, actives from ultra-high-throughput screening (AID 540297); format: functional
T2 sequence (Q9GZU7 whole entry): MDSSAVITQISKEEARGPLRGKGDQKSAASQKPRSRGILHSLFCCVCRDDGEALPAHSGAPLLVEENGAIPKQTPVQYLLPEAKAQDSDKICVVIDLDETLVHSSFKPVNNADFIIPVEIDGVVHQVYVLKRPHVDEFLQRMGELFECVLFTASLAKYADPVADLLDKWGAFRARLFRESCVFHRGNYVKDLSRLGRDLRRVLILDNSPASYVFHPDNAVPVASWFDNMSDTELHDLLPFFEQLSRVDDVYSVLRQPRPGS

[9] = THP-1 cell cytotoxicity, dose response, cytotoxicity control for Vif-APOBEC3G degradation inhibitor project, THP-1 cells (AID 1117359); format: functional; settings: Human immunodeficiency virus 1, THP-1
[10] = HEp-2 cell cytotoxicity, dose response, cytotoxicity control for RSV inhibitor project, HTS (AID 2410); format: functional; settings: human respiratory syncytial virus
[11] = inhibitors of intracellular T. cruzi replication, confirmation, NIH3T3 host cells, beta-gal luminescence (AID 2044); format: functional, cell-based;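 note: intracellular parasites grown in NIH/3T3 mouse fibroblasts as host cells; luminescent beta-galactosidase reporter signal from transgenic T. cruzi replicating inside host cells; inhibitors lower the luminescence signal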
[12] = cytotoxicity toward NIH3T3 fibroblasts, dose response, counter-screen, cell-based, ATP luminescence, mouse fibroblasts (AID 2010); format: functional;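 note: cells exposed to compound for about 90 hours before reading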
Genome polyprotein = Genome polyprotein (dengue virus type 2, UniProt P29990); test: Dengue-2 NS5 methyltransferase inhibitors, primary screen, biochemical, confirmation dose response (AID 588689); format: functional
Protein RecA = target: T3, Protein RecA (Mycobacterium tuberculosis, UniProt P9WHJ3); test: Fluorescence Cell-Free Homogeneous Dose Retest to Identify Inhibitors of RecA-Intein Splicing Activity. [Related pubchem assays (depositor defined):AID2097, AID2223, AID489010, AID492950]; format: functional
T3 sequence (P9WHJ3 whole entry): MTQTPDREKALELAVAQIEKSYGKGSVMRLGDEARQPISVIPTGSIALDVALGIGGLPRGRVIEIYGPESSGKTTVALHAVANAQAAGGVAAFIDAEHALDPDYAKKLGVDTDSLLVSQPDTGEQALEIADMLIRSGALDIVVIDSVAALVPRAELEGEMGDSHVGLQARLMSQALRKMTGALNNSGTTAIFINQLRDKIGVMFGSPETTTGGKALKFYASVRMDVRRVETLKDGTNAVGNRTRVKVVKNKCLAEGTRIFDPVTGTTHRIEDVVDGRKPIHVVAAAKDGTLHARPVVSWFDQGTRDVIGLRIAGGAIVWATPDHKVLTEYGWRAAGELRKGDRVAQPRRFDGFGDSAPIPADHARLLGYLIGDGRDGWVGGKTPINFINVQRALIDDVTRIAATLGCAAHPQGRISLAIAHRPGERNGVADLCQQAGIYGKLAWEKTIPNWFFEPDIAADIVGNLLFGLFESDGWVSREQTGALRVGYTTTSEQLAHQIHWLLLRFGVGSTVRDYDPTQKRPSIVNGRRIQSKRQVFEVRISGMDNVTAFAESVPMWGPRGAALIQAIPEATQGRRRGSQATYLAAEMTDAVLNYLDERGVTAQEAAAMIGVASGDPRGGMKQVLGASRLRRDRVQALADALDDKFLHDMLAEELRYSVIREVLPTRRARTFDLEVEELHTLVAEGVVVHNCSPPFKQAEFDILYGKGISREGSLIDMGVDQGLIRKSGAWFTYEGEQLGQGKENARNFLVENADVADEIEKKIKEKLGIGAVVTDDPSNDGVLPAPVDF

[13] = target: T4, Replicative DNA helicase DnaB (Mycobacterium tuberculosis, UniProt P9WMR3); test: DnaB intein splicing inhibitors, dose response, biochemical, cell-free fluorescence (AID 449749); format: functional
T4 sequence (P9WMR3 whole entry): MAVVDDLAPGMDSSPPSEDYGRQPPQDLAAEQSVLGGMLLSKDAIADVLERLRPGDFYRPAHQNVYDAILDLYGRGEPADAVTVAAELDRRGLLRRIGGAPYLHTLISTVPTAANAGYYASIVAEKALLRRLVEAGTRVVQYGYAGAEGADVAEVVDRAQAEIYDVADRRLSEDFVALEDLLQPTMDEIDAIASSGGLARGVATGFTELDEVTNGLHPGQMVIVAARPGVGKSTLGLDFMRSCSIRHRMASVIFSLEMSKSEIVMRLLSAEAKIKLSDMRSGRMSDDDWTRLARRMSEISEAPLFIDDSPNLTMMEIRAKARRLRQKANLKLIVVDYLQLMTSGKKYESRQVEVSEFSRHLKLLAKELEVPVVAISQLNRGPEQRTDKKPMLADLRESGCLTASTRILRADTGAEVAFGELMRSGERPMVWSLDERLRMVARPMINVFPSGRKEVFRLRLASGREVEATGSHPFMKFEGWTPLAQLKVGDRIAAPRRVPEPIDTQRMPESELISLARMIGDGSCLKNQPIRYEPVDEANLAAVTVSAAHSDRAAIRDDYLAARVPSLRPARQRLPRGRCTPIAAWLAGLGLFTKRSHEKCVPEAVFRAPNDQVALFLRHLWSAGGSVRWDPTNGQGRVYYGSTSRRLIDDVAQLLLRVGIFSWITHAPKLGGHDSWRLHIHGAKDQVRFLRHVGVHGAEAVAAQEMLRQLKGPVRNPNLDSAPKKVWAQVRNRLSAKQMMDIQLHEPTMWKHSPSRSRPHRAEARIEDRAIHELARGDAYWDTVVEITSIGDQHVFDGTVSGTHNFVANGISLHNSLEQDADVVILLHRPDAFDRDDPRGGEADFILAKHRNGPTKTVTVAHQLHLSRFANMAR

Chain of Luciferin 4-monooxygenase (P08659 whole entry): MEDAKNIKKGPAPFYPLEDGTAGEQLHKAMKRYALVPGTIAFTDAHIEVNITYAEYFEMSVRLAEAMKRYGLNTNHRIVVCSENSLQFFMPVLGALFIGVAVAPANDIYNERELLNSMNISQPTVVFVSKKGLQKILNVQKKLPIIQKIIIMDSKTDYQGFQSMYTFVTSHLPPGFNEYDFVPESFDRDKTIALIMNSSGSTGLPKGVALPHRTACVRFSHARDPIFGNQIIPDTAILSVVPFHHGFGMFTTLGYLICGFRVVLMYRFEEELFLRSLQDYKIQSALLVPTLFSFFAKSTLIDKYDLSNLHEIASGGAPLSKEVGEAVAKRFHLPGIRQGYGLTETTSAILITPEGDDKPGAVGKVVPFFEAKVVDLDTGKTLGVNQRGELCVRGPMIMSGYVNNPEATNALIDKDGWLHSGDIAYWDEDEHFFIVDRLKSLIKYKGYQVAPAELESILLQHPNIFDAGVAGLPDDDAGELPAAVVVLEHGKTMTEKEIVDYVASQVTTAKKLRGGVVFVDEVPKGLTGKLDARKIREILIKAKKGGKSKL
Chain of Genome polyprotein (P29990 2492-3391 limits assumed): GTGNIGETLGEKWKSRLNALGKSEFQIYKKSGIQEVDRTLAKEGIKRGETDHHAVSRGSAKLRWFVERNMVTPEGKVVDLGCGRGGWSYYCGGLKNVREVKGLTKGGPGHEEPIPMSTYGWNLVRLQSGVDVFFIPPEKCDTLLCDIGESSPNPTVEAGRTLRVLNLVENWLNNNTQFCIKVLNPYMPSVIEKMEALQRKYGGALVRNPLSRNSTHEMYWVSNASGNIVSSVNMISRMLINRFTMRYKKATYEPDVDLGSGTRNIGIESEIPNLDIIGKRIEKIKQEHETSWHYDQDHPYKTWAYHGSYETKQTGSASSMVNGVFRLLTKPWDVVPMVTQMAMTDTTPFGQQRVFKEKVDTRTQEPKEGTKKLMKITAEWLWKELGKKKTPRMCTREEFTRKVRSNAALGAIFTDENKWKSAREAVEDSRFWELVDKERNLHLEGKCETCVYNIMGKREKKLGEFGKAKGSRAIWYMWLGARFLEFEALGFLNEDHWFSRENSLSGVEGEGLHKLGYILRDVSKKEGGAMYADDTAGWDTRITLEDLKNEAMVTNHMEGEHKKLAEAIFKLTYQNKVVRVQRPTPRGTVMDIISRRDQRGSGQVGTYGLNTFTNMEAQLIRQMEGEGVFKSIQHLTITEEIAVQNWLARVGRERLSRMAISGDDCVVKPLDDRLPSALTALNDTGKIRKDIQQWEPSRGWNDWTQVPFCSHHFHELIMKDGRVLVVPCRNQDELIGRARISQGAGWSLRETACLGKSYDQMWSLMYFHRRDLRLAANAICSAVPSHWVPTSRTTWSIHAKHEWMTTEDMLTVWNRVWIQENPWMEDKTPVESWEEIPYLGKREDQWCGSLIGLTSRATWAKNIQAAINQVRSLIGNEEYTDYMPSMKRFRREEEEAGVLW
Chain of Glyceraldehyde-3-phosphate dehydrogenase (P04406 whole entry, the tested form may be a part): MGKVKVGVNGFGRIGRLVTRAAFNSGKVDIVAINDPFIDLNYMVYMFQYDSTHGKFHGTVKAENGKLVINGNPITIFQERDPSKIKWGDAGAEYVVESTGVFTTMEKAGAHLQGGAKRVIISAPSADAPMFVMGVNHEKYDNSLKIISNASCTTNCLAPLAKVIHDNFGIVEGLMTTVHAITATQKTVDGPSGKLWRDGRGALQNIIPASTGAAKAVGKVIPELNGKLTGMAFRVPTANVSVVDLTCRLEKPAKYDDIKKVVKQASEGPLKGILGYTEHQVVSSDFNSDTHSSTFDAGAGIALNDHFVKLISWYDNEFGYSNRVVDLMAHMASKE

## O=C1C(=Cc2ccncc2)CCCc2ccccc21
[1]
  IC50: > 47.1 µM (inactive)
[2]
  EC50: > 53 µM (inactive)

## CC1CCC(NC(=O)C2CCN(c3c4c(nc5ncnn35)CCC4)CC2)CC1 (stereo not drawn)
[3]
  EC50: 64.8 µM (active)
[4]
  EC50: 48.6 µM (active)
H4
  EC50: 22.3 µM (active)

## CC1=NN(C(N)=S)C(=O)C1N=Nc1cccc(Cl)c1C (stereo not drawn)
Vero
  CC50: > 40 µM (active)

## COC(=O)c1cc(OC)c(OC)cc1NC(=O)C(C)Sc1ccc(C)cc1 (stereo not drawn)
[1]
  IC50: > 47.1 µM (inactive)
[2]
  EC50: > 53 µM (inactive)

## c1ccc(CN2CCC(NC3=NN=C(c4ccc5c(c4)OCCO5)CS3)CC2)cc1
[3]
  EC50: > 120 µM (not active)
[4]
  EC50: 12.5 µM (active)
H4
  EC50: 48.5 µM (active)

## COc1ccc(NC(=O)C(Sc2ccccc2)c2ccccc2)c(OC)c1 (stereo not drawn)
[1]
  IC50: > 47.1 µM (inactive)
[2]
  EC50: > 53 µM (inactive)

## O=C(CN(CCCN1CCOCC1)C(=O)Cn1nnc(-c2ccc(F)cc2)n1)NC1CCCCC1
[5]
  EC50: > 112 µM (not active)
[6]
  EC50: > 112 µM (not active)

## NS(=O)(=O)c1ccc(NC(=O)COc2ccccc2)cc1
[7]
  IC50: > 100 µM (not active)

## COC(=O)c1ccc(C)c(NC(=O)CSc2sc3c(O)cc(=O)[nH]c3c2C#N)c1
[8]
  IC50: 3.04 µM (active)

## Cc1ccccc1CCNC(=O)c1ccc(Cl)c(S(=O)(=O)N2CC(C)OC(C)C2)c1 (stereo not drawn)
[9]
  CC50: > 40 µM (active)

## N#Cc1c(/N=C/c2ccc(-c3ccccc3C(=O)O)o2)sc2c1CCCC2
[8]
  IC50: 9.17 µM (active)

## O=C(c1ccccc1)c1ccc2[nH]c(-c3ccc(NC(=O)c4ccccc4F)cc3)nc2c1
[5]
  EC50: > 112 µM (not active)
[6]
  EC50: > 112 µM (not active)

## O=C(O)c1ccc(CNc2ccccc2C(=O)O)cc1
[8]
  IC50: 25.3 µM (active)

## C=C(C)CNC(=S)N/N=C(\C)c1ccc(OC)cc1
[5]
  EC50: > 112 µM (not active)
[6]
  EC50: 30.5 µM (active)

## Cc1ccc2[nH]c(/C(C#N)=C/c3ccc(-c4ccccc4C(=O)O)o3)nc2c1
[8]
  IC50: 17 µM (active)

## COc1ccc(Cl)cc1C=CC=NNC(=O)c1ccncc1
[8]
  IC50: 18.9 µM (active)

## C/C(=N\NC(=O)c1ccc(NS(=O)(=O)c2cccs2)cc1)c1ccc2ccccc2c1
[10]
  CC50: 16.7 µM (active)
[5]
  EC50: > 112 µM (not active)
[6]
  EC50: > 112 µM (not active)

## O=C(Nc1cccc(N2CCCC2)c1)c1cccs1
[11]
  EC50: 4.67 µM (active)
[12]
  EC50: > 60 µM (not active)
[5]
  EC50: > 112 µM (not active)
[6]
  EC50: > 112 µM (not active)

## O=C(Nc1cccc(S(=O)(=O)N2CCCCC2)c1)c1ccc(S(=O)(=O)C(F)F)cc1
[1]
  IC50: > 47.1 µM (inactive)
[2]
  EC50: > 53 µM (inactive)

## CC(=O)c1ccc(NC(=O)CCc2nnc3ccc(N4CCC5(CC4)OCCO5)nn23)cc1
[1]
  IC50: > 47.1 µM (inactive)
[2]
  EC50: > 53 µM (inactive)

## O=C(CCN1C(=O)/C(=C/c2ccc3c(c2)OCO3)SC1=S)Nc1cccc(C(=O)O)c1
Genome polyprotein
  IC50: 47 µM (active)
[8]
  IC50: 6.78 µM (active)

## CCOc1ccc(/C=C2\SC(=S)N(CCC(=O)Nc3ccccc3C(=O)O)C2=O)cc1
Protein RecA
  EC50: 15.1 µM (active)
Genome polyprotein
  IC50: 29.3 µM (active)
[8]
  IC50: 4.86 µM (active)
[13]
  AC50: 6.1 µM (active)

## Cc1c(Cl)cccc1N1C(=O)c2ccccc2C1=O
[1]
  IC50: > 47.1 µM (inactive)
[2]
  EC50: > 53 µM (inactive)

## O=C1c2ccccc2C(Nc2ccc3c(c2)OCO3)N1Cc1ccco1 (stereo not drawn)
[5]
  EC50: > 112 µM (not active)
[6]
  EC50: > 112 µM (not active)

## Cc1ccc(S(=O)(=O)N2[C@@H](c3ccc(Br)cc3)C(C(=O)O)=C[C@H]2CC2CCCC2)cc1
Genome polyprotein
  IC50: 37 µM (active)
Vero
  CC50: > 40 µM (active)

## COc1ccccc1NC(=O)CSc1nnc(CNC(=O)c2ccco2)o1
[1]
  IC50: > 47.1 µM (inactive)
[2]
  EC50: > 53 µM (inactive)

## Cc1ccc(C2CC(c3ccccc3)=NN2C(=O)CSc2nnc(-c3ccc(Cl)cc3)o2)o1 (stereo not drawn)
[5]
  EC50: > 112 µM (not active)
[6]
  EC50: > 112 µM (not active)

## CCc1ccc(-c2cc(C)no2)cc1S(=O)(=O)N1CCN(c2ccccc2OC)CC1
[5]
  EC50: > 112 µM (not active)
[6]
  EC50: > 112 µM (not active)

## CC1=C(SCc2ccccc2)C(=O)c2ccccc2C1=O
Genome polyprotein
  IC50: 76.8 µM (active)
[9]
  CC50: 34.6 µM (active)
Vero
  CC50: > 40 µM (active)
